Reference: patent US20040082557A1, “Methods for treating estrogen-dependent disorders” (priority 2001, published 2004)

How the values were obtained:
endometrial explants = assay: Animal model of endometriosis in adult female rats (endometrium autotransplanted under the renal capsule); format: in vivo, rat; details: for volume of the explant: measured one week after the fourth weekly dose
[1] = tested on: pain symptoms in premenopausal women; assay: Randomized, double-blind, parallel group clinical study of exemestane on pain symptoms in premenopausal women with endometriosis; format: in vivo, human; details: for ESS Composite Improvement from Visit 6 (Baseline): No / ESS Composite Improvement from Visit 6 (Baseline): Yes: % of total reported
[2] = 25 mg orally per day, Visit 10 (4 weeks of exemestane)
[3] = 25 mg orally per day, Visit 10 (4 weeks of exemestane), improvement = decrease of at least 1 point
[4] = 25 mg orally per day, Visit 14 (8 weeks of exemestane)
[5] = 25 mg orally per day, Visit 18 (follow-up)
[6] = 100 mg orally per day, Visit 10 (4 weeks of exemestane)
[7] = 100 mg orally per day, Visit 10 (4 weeks of exemestane), improvement = decrease of at least 1 point
[8] = 100 mg orally per day, Visit 14 (8 weeks of exemestane)
[9] = 100 mg orally per day, Visit 18 (follow-up)
[10] = either treatment group (25 or 100 mg/day), over the study period

C=C1C[C@@H]2[C@H](CC[C@]3(C)C(=O)CC[C@@H]23)[C@@]2(C)C=CC(=O)C=C12 [Exemestane, 6-methylenandrost-1,4-diene-3,17-dione]
volume of the explant (endometrial explants; exemestane alone, intramuscularly once a week for 4 consecutive weeks): dose-related decrease in the volume of the explant
effect on growth of the endometrial explants, combination (endometrial explants; exemestane in combination with triptorelin at marginally or intermediate effective doses, 4 weeks): additive or synergistic effect
tolerability ([1]; 25 mg and 100 mg, 54 woman subjects who received at least one dose): well tolerated
Dysmenorrhea: Improvement over Visit 6 (Baseline, Start of Treatment): No [1, 2]: 44.0%
Dyspareunia: Improvement over Visit 6 (Baseline, Start of Treatment): No [1, 2]: 35.3%
Pelvic Pain: Improvement over Visit 6 (Baseline, Start of Treatment): No [1, 2]: 44.0%
ESS Scale, Composite Score, Change from Visit 6, Mean ([1]; 25 mg orally per day, Visit 10 (4 weeks of exemestane), 17 patients with 3 endpoints evaluated, Visit 6 mean 5.0588, SD 2.0917, within treatment p 0.002): −2.000
ESS Composite Improvement from Visit 6 (Baseline): No [1, 2]: 56.0%
ESS Composite Improvement from Visit 6 (Baseline): Yes ([1]; 25 mg orally per day, Visit 10 (4 weeks of exemestane), improvement = at least 3-point decrease (3 symptoms) or 2-point (2 symptoms)): 44.0%
Dysmenorrhea: Improvement over Visit 6 (Baseline, Start of Treatment): Yes [1, 3]: 56.0%
Dyspareunia: Improvement over Visit 6 (Baseline, Start of Treatment): Yes [1, 3]: 64.7%
Pelvic Pain: Improvement over Visit 6 (Baseline, Start of Treatment): Yes [1, 3]: 56.0%
Dysmenorrhea: Improvement over Visit 6 (Baseline, Start of Treatment): No [1, 4]: 41.7%
Dysmenorrhea: Improvement over Visit 6 (Baseline, Start of Treatment): Yes [1, 4]: 58.3%
Dyspareunia: Improvement over Visit 6 (Baseline, Start of Treatment): No [1, 4]: 31.6%
Dyspareunia: Improvement over Visit 6 (Baseline, Start of Treatment): Yes [1, 4]: 68.4%
Pelvic Pain: Improvement over Visit 6 (Baseline, Start of Treatment): No [1, 4]: 41.7%
Pelvic Pain: Improvement over Visit 6 (Baseline, Start of Treatment): Yes [1, 4]: 58.3%
ESS Scale, Composite Score, Change from Visit 6, Mean ([1]; 25 mg orally per day, Visit 14 (8 weeks of exemestane), 19 patients, Visit 6 mean 5.1579, SD 1.8257, within treatment p <0.001): −2.000
ESS Composite Improvement from Visit 6 (Baseline): No [1, 4]: 66.7%
ESS Composite Improvement from Visit 6 (Baseline): Yes [1, 4]: 33.3%
Dysmenorrhea: Improvement over Visit 6 (Baseline, Start of Treatment): No [1, 5]: 64.0%
Dysmenorrhea: Improvement over Visit 6 (Baseline, Start of Treatment): Yes [1, 5]: 36.0%
Dyspareunia: Improvement over Visit 6 (Baseline, Start of Treatment): No [1, 5]: 29.4%
Dyspareunia: Improvement over Visit 6 (Baseline, Start of Treatment): Yes [1, 5]: 70.6%
Pelvic Pain: Improvement over Visit 6 (Baseline, Start of Treatment): No [1, 5]: 68.0%
Pelvic Pain: Improvement over Visit 6 (Baseline, Start of Treatment): Yes [1, 5]: 32.0%
ESS Scale, Composite Score, Change from Visit 6, Mean ([1]; 25 mg orally per day, Visit 18 (follow-up), 17 patients, Visit 6 mean 5.0588, SD 1.8028, within treatment p <0.001): −2.000
ESS Composite Improvement from Visit 6 (Baseline): No [1, 5]: 84.0%
ESS Composite Improvement from Visit 6 (Baseline): Yes [1, 5]: 16.0%
Dyspareunia score, Change from Baseline, Mean ± SD ([1]; 25 mg, Visit 10 (4 weeks of exemestane), baseline 1.6 ± 0.7, N 17): −0.9 ± 0.8
Pelvic Pain score, Change from Baseline, Mean ± SD ([1]; 25 mg, Visit 10 (4 weeks of exemestane), baseline 1.8 ± 0.5, N 25): −0.6 ± 0.9
Dysmenorrhea score, Change from Baseline, Mean ± SD ([1]; 25 mg, Visit 10 (4 weeks of exemestane), baseline 2.0 ± 0.6, N 17): −0.9 ± 0.8
Dyspareunia score, Change from Baseline, Mean ± SD ([1]; 25 mg, Visit 14 (8 weeks of exemestane), baseline 1.6 ± 0.7, N 19): −0.8 ± 0.6
Pelvic Pain score, Change from Baseline, Mean ± SD ([1]; 25 mg, Visit 14 (8 weeks of exemestane), baseline 1.8 ± 0.5, N 24): −0.6 ± 0.9
Dysmenorrhea score, Change from Baseline, Mean ± SD ([1]; 25 mg, Visit 14 (8 weeks of exemestane), baseline 2.0 ± 0.6, N 19): −0.8 ± 0.6
Dysmenorrhea: Improvement over Visit 6 (Baseline, Start of Treatment): No [1, 6]: 38.5%
Dyspareunia: Improvement over Visit 6 (Baseline, Start of Treatment): No [1, 6]: 38.9%
Pelvic Pain: Improvement over Visit 6 (Baseline, Start of Treatment): No [1, 6]: 30.8%
ESS Scale, Composite Score, Change from Visit 6, Mean ([1]; 100 mg orally per day, Visit 10 (4 weeks of exemestane), 18 patients, Visit 6 mean 5.9444, SD 2.0364, within treatment p <0.001): −2.5000
ESS Composite Improvement from Visit 6 (Baseline): No [1, 6]: 46.2%
ESS Composite Improvement from Visit 6 (Baseline): Yes ([1]; 100 mg orally per day, Visit 10 (4 weeks of exemestane), improvement = at least 3-point decrease (3 symptoms) or 2-point (2 symptoms)): 53.8%
Dysmenorrhea: Improvement over Visit 6 (Baseline, Start of Treatment): Yes [1, 7]: 61.5%
Dyspareunia: Improvement over Visit 6 (Baseline, Start of Treatment): Yes [1, 7]: 61.1%
Pelvic Pain: Improvement over Visit 6 (Baseline, Start of Treatment): Yes [1, 7]: 69.2%
Dysmenorrhea: Improvement over Visit 6 (Baseline, Start of Treatment): No [1, 8]: 39.1%
Dysmenorrhea: Improvement over Visit 6 (Baseline, Start of Treatment): Yes [1, 8]: 60.9%
Dyspareunia: Improvement over Visit 6 (Baseline, Start of Treatment): No [1, 8]: 47.1%
Dyspareunia: Improvement over Visit 6 (Baseline, Start of Treatment): Yes [1, 8]: 52.9%
Pelvic Pain: Improvement over Visit 6 (Baseline, Start of Treatment): No [1, 8]: 30.4%
Pelvic Pain: Improvement over Visit 6 (Baseline, Start of Treatment): Yes [1, 8]: 69.6%
ESS Scale, Composite Score, Change from Visit 6, Mean ([1]; 100 mg orally per day, Visit 14 (8 weeks of exemestane), 17 patients, Visit 6 mean 5.5882, SD 1.9059, within treatment p <0.001): −2.4118
ESS Composite Improvement from Visit 6 (Baseline): No [1, 8]: 43.5%
ESS Composite Improvement from Visit 6 (Baseline): Yes [1, 8]: 56.5%
Dysmenorrhea: Improvement over Visit 6 (Baseline, Start of Treatment): No [1, 9]: 50.0%
Dysmenorrhea: Improvement over Visit 6 (Baseline, Start of Treatment): Yes [1, 9]: 50.0%
Dyspareunia: Improvement over Visit 6 (Baseline, Start of Treatment): No [1, 9]: 50.0%
Dyspareunia: Improvement over Visit 6 (Baseline, Start of Treatment): Yes [1, 9]: 50.0%
Pelvic Pain: Improvement over Visit 6 (Baseline, Start of Treatment): No [1, 9]: 31.8%
Pelvic Pain: Improvement over Visit 6 (Baseline, Start of Treatment): Yes [1, 9]: 68.2%
ESS Scale, Composite Score, Change from Visit 6, Mean ([1]; 100 mg orally per day, Visit 18 (follow-up), 14 patients, Visit 6 mean 5.5714, SD 1.7852, within treatment p 0.016): −1.4286
ESS Composite Improvement from Visit 6 (Baseline): No [1, 9]: 50.0%
ESS Composite Improvement from Visit 6 (Baseline): Yes [1, 9]: 50.0%
Dyspareunia score, Change from Baseline, Mean ± SD ([1]; 100 mg, Visit 10 (4 weeks of exemestane), baseline 1.9 ± 1.0, N 18): −1.0 ± 1.3
Pelvic Pain score, Change from Baseline, Mean ± SD ([1]; 100 mg, Visit 10 (4 weeks of exemestane), baseline 2.1 ± 0.5, N 26): −0.8 ± 0.7
Dysmenorrhea score, Change from Baseline, Mean ± SD ([1]; 100 mg, Visit 10 (4 weeks of exemestane), baseline 2.1 ± 0.7, N 18): −1.0 ± 1.3
Dyspareunia score, Change from Baseline, Mean ± SD ([1]; 100 mg, Visit 14 (8 weeks of exemestane), baseline 1.9 ± 1.0, N 17): −0.8 ± 0.8
Pelvic Pain score, Change from Baseline, Mean ± SD ([1]; 100 mg, Visit 14 (8 weeks of exemestane), baseline 2.1 ± 0.5, N 23): −0.8 ± 0.8
Dysmenorrhea score, Change from Baseline, Mean ± SD ([1]; 100 mg, Visit 14 (8 weeks of exemestane), baseline 2.1 ± 0.7, N 17): −0.8 ± 0.7
endometriosis symptoms ([1]; 25 or 100 mg orally per day, 2 months): moderate improvement in endometriosis symptoms
blood pressure [1, 10]: Neither blood pressure nor body weight changed significantly
body weight [1, 10]: Neither blood pressure nor body weight changed significantly
hematology, plasma chemistry or urinalysis laboratory assays [1, 10]: No noteworthy changes

CC(C)C[C@H](NC(=O)[C@@H](Cc1c[nH]c2ccccc12)NC(=O)[C@H](Cc1ccc(O)cc1)NC(=O)[C@H](CO)NC(=O)[C@H](Cc1c[nH]c2ccccc12)NC(=O)[C@H](Cc1c[nH]cn1)NC(=O)[C@@H]1CCC(=O)N1)C(=O)N[C@@H](CCCNC(=N)N)C(=O)N1CCC[C@H]1C(=O)NCC(N)=O [triptorelin]
volume of the explant (endometrial explants; triptorelin alone, subcutaneously once weekly for 4 weeks): dose-related decrease in the volume of the explant
